Drawing on ChEMBL document CHEMBL3507680, “University of Dundee, Gates Library screen for HepG2 cell viability”, this text covers cytotoxicity for 105 compounds.

The series is described as follows: Human HepG2 cell viability assay in 384 well format. On the set-up: dose 125 nL, time 70.5 hour; cytotoxicity at 70.5 h: concentration not given beside the values. The following applies: HepG2 cells, read-out: Inhibition. Type of series: toxicity, cell-based.
Turning to `Cc1ccc(N(CCC#N)C(=O)CCc2cccnc2)cc1C`, the cytotoxicity at 70.5 h is -5.18%.
Then `Cc1nc(CCCNC(=O)Nc2cc(F)cc(F)c2)n[nH]1`, with -11.9%; and `Cc1nc(C)c(S(=O)(=O)NC(=O)c2cccs2)s1`, with -4.64%.
For the compound `Cc1noc(C)c1CNC(=O)Nc1ccc(N2CCSCC2)cc1`, the cytotoxicity at 70.5 h is -9.93%.
With `CC(Oc1cc(Cl)cc(Cl)c1)C(=O)NCCOCC(N)=O` (stereo not given), the cytotoxicity at 70.5 h was 18%.
For the compound `CC(c1ccco1)N(C(=O)Cn1nc2n(c1=O)CCCCC2)C1CC1` (stereo not given), the cytotoxicity at 70.5 h was 18%.
Regarding `Cc1ocnc1CNC(=O)Nc1ccc(N2CCOC(C)C2)cc1` (stereo not given), the cytotoxicity at 70.5 h was -17.7%.
As for `CC(C)CC(CO)NS(=O)(=O)Cc1ccon1` (stereo not given), the cytotoxicity at 70.5 h was -6.44%.
Then `Cc1nc(CCCNC(=O)c2cc(F)ccc2O)n[nH]1`, with -9.81%; and `CCc1ncnc(N2CCOCC2C(N)=O)c1F` (stereo not given), with -5.74%; and `CC(c1ccncc1)N(C)C(=O)NCCOc1ccc(C#N)cc1` (stereo not given), with 16.9%.
Consider `Cc1cnc(C(=O)N2CCOCC2C)cn1` (stereo not given), for which the cytotoxicity at 70.5 h was -16.2%.
To `N#Cc1ccc(CN2CCC(CN3CCOCC3)C2)cc1` (stereo not given) belongs -5.35%; to `CC(c1ccco1)N(C)C(=O)NCCOc1ccc(C#N)cc1` (stereo not given), -8.15%.
Turning to `COc1c(C(=O)NC(C)CC(=O)c2cccs2)c(C)nn1C` (stereo not given), the cytotoxicity at 70.5 h was -0.066%.
On to `Cc1cnc(C(=O)N2CCOCC2c2ccccc2)cn1` (stereo not given), for which the cytotoxicity at 70.5 h is -10.2%.
As to `N#CC1(NC(=O)c2c(F)ccc(OC(F)F)c2F)CCOCC1`, the cytotoxicity at 70.5 h is -9.56%.
`CCC(C)NC(=O)Nc1cccc(OC)c1` (stereo not given): the cytotoxicity at 70.5 h is -5.26%.
Then `Cc1csc(CCNC(=O)N2CCC(C(N)=O)CC2)n1`, with -16.7%.
To `O=C(CCc1nc(-c2ccsc2)no1)NCC1CCN(C2CC2)C1` (stereo not given) belongs 7.83%; to `CN(C)C(=O)Cn1cnc2c(Br)cccc2c1=O`, -10.4%.
Regarding `Cc1nnc(CN(Cc2ccco2)Cc2cccc3c2OCO3)n1C`, the cytotoxicity at 70.5 h was -6.18%.
With `CN(CCC#N)C(=O)Cn1cnc2c(Br)cccc2c1=O`, the cytotoxicity at 70.5 h is -1.58%.
As for `COc1ccc(-c2cnc(CN(CC(N)=O)C3CCCC3)o2)cc1`, the cytotoxicity at 70.5 h is -11.2%.
With `NC(=O)CN(Cc1ncc(-c2ccc(Cl)cc2)o1)C1CCCC1`, the cytotoxicity at 70.5 h is -7.75%.
Regarding `Nc1nccnc1C(=O)NC1CCCN(Cc2c(F)cccc2F)C1` (stereo not given), the cytotoxicity at 70.5 h was -16.3%.
Take `CCOc1ccccc1C(=O)NCc1nncn1C1CC1`: the cytotoxicity at 70.5 h was determined as 3.5%.
To `CCNC(=O)C1CCN(Cc2ccccc2OCC(F)(F)F)CC1` belongs -4.11%; to `COc1ccc(C)nc1NC(=O)Cc1c(C)nn(C)c1C`, -0.279%.
Then `NC(=O)NC1CCN(Cc2ccccc2OCC(F)(F)F)CC1`, with -4.28%.
Turning to `COc1ccc(C)c(NC(=O)NCc2ncnn2C)c1`, the cytotoxicity at 70.5 h was 3.43%.
On to `O=C(NCc1nncn1C1CC1)c1cccnc1Oc1ccccc1`, for which the cytotoxicity at 70.5 h was -0.0708%.
As for `N#CC1(NC(=O)c2ccc(F)cc2OC(F)F)CCOCC1`, the cytotoxicity at 70.5 h was -10.6%.
Then `COc1ccc(Br)c(NC(=O)NCc2ncnn2C)c1`, with -9.33%.
For `COc1ncc(NCc2ccsc2)cc1C(N)=O`, the cytotoxicity at 70.5 h was 3.63%.
On to `COc1ncc(NCc2cccc(C#N)c2)cc1C(N)=O`, for which the cytotoxicity at 70.5 h is -1.66%.
For `O=C(NCc1nncn1C1CC1)c1ccccc1OCC1CC1`, the cytotoxicity at 70.5 h is -5.93%.
Consider `NCC(CO)Cc1ccc(C(F)(F)F)cc1` (stereo not given), for which the cytotoxicity at 70.5 h was determined as 4.66%.
To `COC(=O)c1ccc(N(C(=O)c2cc(Cl)ccn2)C(C)C)c(C)c1` belongs -2.71%; to `Cc1cccc(NCCOc2cccc(C#N)c2)c1C(N)=O`, 16.4%.
`CC(CO)NC(=O)Nc1ccc(COC2CCCC2)cc1` (stereo not given): the cytotoxicity at 70.5 h is -2.03%.
To `Cc1nn(C)c(C)c1OCC(=O)NCC(O)Cc1ccccc1` (stereo not given) belongs 1.56%.
Consider `Cc1nn(C)c(C)c1OCC(=O)NCC(O)c1ccsc1` (stereo not given), for which the cytotoxicity at 70.5 h turned out to be 0.375%.
Then `Cc1nn(C)c(C)c1OCC(=O)NCc1cccc(CO)c1`, with 2.69%; and `O=C(CCCNCc1ccc(Cl)c2cccnc12)NC1CC1`, with -1.79%; and `CC(C)N(CCSc1ncnc2[nH]ncc12)C(C)C`, with -1.52%.
With `Cc1nn(C)c(C)c1OCC(=O)NCC(O)c1ccco1` (stereo not given), the cytotoxicity at 70.5 h was 16%.
To `Cc1ccc(N2CCCC(NCCS(C)(=O)=O)C2)nn1` (stereo not given) belongs -1.77%; to `CC(C)=CCNC1CCCN(c2ccc(C)nn2)C1` (stereo not given), -1.28%.
In the case of `N#Cc1cc(CSCCN2CCOCC2)ccc1F`, the cytotoxicity at 70.5 h is -13.8%.
On to `COCCn1cc(C(=O)N2CCCC2c2noc(C)n2)ccc1=O` (stereo not given), for which the cytotoxicity at 70.5 h came out at 40.8%.
Then `Cc1nc(C)n(CC2CCCCN2CCCS(C)(=O)=O)n1` (stereo not given), with 9.04%; and `Cc1nc(C)n(CC2CCCCN2CCCO)n1` (stereo not given), with 9.77%.
Turning to `COCCn1cc(C(=O)N2CCCC2c2ccc(F)cc2)ccc1=O` (stereo not given), the cytotoxicity at 70.5 h is -1.67%.
Take `COCCn1cc(C(=O)N2CCCC2c2ccccc2C)ccc1=O` (stereo not given): the cytotoxicity at 70.5 h was -7.56%.
In the case of `c1ccc(-c2nc(CN3CCOC(Cn4cccn4)C3)cs2)cc1` (stereo not given), the cytotoxicity at 70.5 h is -2.87%.
As to `Cc1cc(Br)oc1C(=O)N1CCN(CC(N)=O)CC1`, the cytotoxicity at 70.5 h was -1.55%.
Take `COc1cc(C)nc(N2CCN(C(=O)CCc3ccco3)CC2)n1`: the cytotoxicity at 70.5 h was -2.64%.
In the case of `NC(=O)CCn1ccc(NC(=O)c2ccc(OCC3CC3)cc2)n1`, the cytotoxicity at 70.5 h was -3.84%.
`Cc1ccc(C(=O)Nc2ccn(CCC(N)=O)n2)cc1`: the cytotoxicity at 70.5 h is -3.18%.
With `CN1CCC(N(Cc2ccccc2F)C(=O)NCc2ccncc2)CC1`, the cytotoxicity at 70.5 h came to 30.5%.
Then `CCC(=O)N1CCN(C(=O)Nc2cccc(N3CCOCC3)c2)CC1`, with 2.85%; and `CCOC(C)c1nc(CN2CCN(Cc3cccnc3)CC2)cs1` (stereo not given), with -4.18%; and `O=C(NCc1ccccc1CN1CCC(O)CC1)Nc1ccccn1`, with -3.22%.
Regarding `c1cc(C2CCN(Cc3nc(-c4ccsc4)no3)CC2)[nH]n1`, the cytotoxicity at 70.5 h was -3.49%.
Turning to `O=C(CN1CCCCC1Cn1cccn1)NC1CCOCC1` (stereo not given), the cytotoxicity at 70.5 h is -6.42%.
Consider `Cn1cc(-c2nc(CN3CCOC(Cn4cccn4)C3)cs2)cn1` (stereo not given), for which the cytotoxicity at 70.5 h is -5.18%.
Turning to `CC(C)N(C)S(=O)(=O)N1CCCC1CC(=O)c1cccs1` (stereo not given), the cytotoxicity at 70.5 h was -0.315%.
For the compound `CCOc1ccccc1NC(C)C(=O)N(C)Cc1cccc(F)c1` (stereo not given), the cytotoxicity at 70.5 h was found to be 6.19%.
For the compound `CCC(CNC(=O)c1ccccn1)N1CCc2ccccc2C1` (stereo not given), the cytotoxicity at 70.5 h came out at 10.5%.
For the compound `O=C(NCC1(N2CCOCC2)CCSC1)Nc1ccncc1` (stereo not given), the cytotoxicity at 70.5 h is -6.91%.
Regarding `CN(Cc1ccco1)C(=O)NCc1nnc2n1CCC2`, the cytotoxicity at 70.5 h was -8.06%.
As to `Cc1cc(C(=O)CN2C(=O)c3ccccc3CS2(=O)=O)c(C)[nH]1`, the cytotoxicity at 70.5 h is -6.26%.
On to `Cc1ccc(NC(C)C(=O)N(C)Cc2cccc(F)c2)cc1C(N)=O` (stereo not given), for which the cytotoxicity at 70.5 h is -4.3%.
Turning to `CCOCCC(=O)NC1(c2cccc(Br)c2)CC1`, the cytotoxicity at 70.5 h is -3.83%.
With `CN(Cc1ccco1)Cc1ccccc1CNC(=O)c1csnn1`, the cytotoxicity at 70.5 h is -1.62%.
Turning to `CN(Cc1ccco1)Cc1ccccc1CNC(=O)c1cnccn1`, the cytotoxicity at 70.5 h is -6.66%.
With `N#Cc1cc(NC(=O)c2ccncc2)ccc1N1CCC(O)CC1`, the cytotoxicity at 70.5 h is -3.68%.
On to `C=C(C)CN1CCC(NC(=O)NCCc2ccccc2OC)CC1`, for which the cytotoxicity at 70.5 h is -7.86%.
In the case of `CC(=O)c1cccc(OCCCC(=O)N(C)CCC(F)(F)F)c1`, the cytotoxicity at 70.5 h was -4.24%.
To `CN(Cc1ccco1)Cc1ccccc1CNC(=O)c1c[nH]nn1` belongs -1.03%; to `COc1ccc(F)cc1C(C)NC(=O)Nc1nncs1` (stereo not given), 4.1%; to `COCc1ccccc1NC(=O)NC(C)c1ccc(C)o1` (stereo not given), -3.14%.
In the case of `CS(=O)(=O)NCCNC(=O)c1cnc(-c2ccccc2)nc1`, the cytotoxicity at 70.5 h is -4.82%.
In the case of `N#Cc1ccc(CNC(=O)NC2CCN(c3ncccn3)CC2)cc1`, the cytotoxicity at 70.5 h is -7.8%.
To `Cc1cc(C(=O)Nc2cccn(Cc3ccccc3)c2=O)no1` belongs 1.5%; to `O=C(NCCC1CCN(CC(F)(F)F)CC1)C1CCCOC1` (stereo not given), 3.94%.
Consider `CN(CCc1nccs1)C(=O)CC1(O)CCCCC1`, for which the cytotoxicity at 70.5 h is -5.26%.
As for `N#CCCN(Cc1ccccn1)Cn1cc(Cl)cn1`, the cytotoxicity at 70.5 h was determined as 29.9%.
To `CCSCCC(C)N(C)C(=O)c1ccc2nncn2c1` (stereo not given) belongs -4.21%.
Regarding `Cn1cc(S(=O)(=O)NC(=O)C2(c3cccc(Cl)c3)CC2)cn1`, the cytotoxicity at 70.5 h was -10.1%.
Consider `CCN1CCC(CNC(=O)Nc2cnn(CC(N)=O)c2)C1` (stereo not given), for which the cytotoxicity at 70.5 h is -8.69%.
`NC(=O)Cn1cc(NC(=O)NCC2CCN(c3ccccc3)C2)cn1` (stereo not given): the cytotoxicity at 70.5 h is -8.01%.
To `Cc1nn(CCC#N)c(C)c1CCC(=O)N(C(C)C)C1CC1` belongs -10.9%; to `CC(C)C(=O)Nc1ccc(Sc2nncn2C)c(Cl)c1`, -16%; to `O=C(O)c1ccc(OC2CCOCC2)cc1`, -3.72%.
With `CCOc1cc(C(=O)N2CC=C(c3ccc(O)cc3)CC2)ccn1`, the cytotoxicity at 70.5 h was -14.3%.
With `Cc1nc(C2CCCN(c3ncc(Br)cn3)C2)no1` (stereo not given), the cytotoxicity at 70.5 h is -13.9%.
In the case of `Cc1ccc(F)c(OC2CCCN(c3cnn(C)c3)C2=O)c1` (stereo not given), the cytotoxicity at 70.5 h was -3.77%.
For the compound `Cn1cc(N2CCCC(Oc3ccc(F)cc3Cl)C2=O)cn1` (stereo not given), the cytotoxicity at 70.5 h was -4.99%.
Consider `CCOc1cccnc1C(=O)N1CC=C(c2ccc(O)cc2)CC1`, for which the cytotoxicity at 70.5 h is -7.65%.
On to `Cc1noc(-c2ccnc(N3CCC(N4CCCC4)CC3)c2)n1`, for which the cytotoxicity at 70.5 h is -8.66%.
`Cc1ccc(CC(=O)Nc2ccc(CS(C)(=O)=O)c(F)c2)cc1`: the cytotoxicity at 70.5 h is -2.59%.
`CN1CC(Nc2nc3c(cnn3-c3ccccc3)c(=O)[nH]2)CCC1=O` (stereo not given): the cytotoxicity at 70.5 h was -10.2%.
Turning to `CCCOC1CCCN(C(=O)c2[nH]nc(C)c2Br)C1` (stereo not given), the cytotoxicity at 70.5 h was -8.95%.
